Test results published in patent US6395769B1, “2-arylbenzo[b]thiophenes useful for the treatment of estrogen deprivation syndrome” (Eli Lilly and Company, priority 1997, dated 2002).

Columns and labels:
[1] = tested on: bone mineral density; test: Osteoporosis model in ovariectomized rats, bone mineral density; format: in vivo, Sprague Dawley rats; details: OVX rats treated orally daily for 35 days, in 20% hydroxypropyl β-cyclodextrin; femur x-ray image analysis and tibia quantitative computed tomography
Description: Seventy-five day old female Sprague Dawley rats (weight range of 200 g to 225 g) are obtained from Charles River Laboratories (Portage, Mich.). The animals are either bilaterally ovariectomized (OVX) or exposed to a Sham surgical procedure at Charles River Laboratories, and then shipped after one week. Upon arrival, they are housed in metal hanging cages in groups of 3 or 4 per cage and have ad libitum access to food (calcium content approximately 0.5%) and water for one week. Room temperature is maintained at 22.2°±1.70° C. with a minimum relative humidity of 40%. The photoperiod in the room is 12 hours light and 12 hours dark.
Following the General Procedure, infra, the rats are treated daily for 35 days (6 rats per treatment group) and sacrificed by carbon dioxide asphyxiation on the 36th day. The 35 day time period is sufficient to allow maximal reduction in bone density, measured as described herein. At the time of sacrifice, the uteri are removed, dissected free of extraneous tissue, and the fluid contents are expelled before determination of wet weight in order to confirm estrogen deficiency associated with complete ovariectomy. […]
The right femurs are excised and digitilized x-rays generated and analyzed by an image analysis program (NIH image) at the distal metaphysis. The proximal aspect of the tibiae from these animals are also scanned by quantitative computed tomography.

| melting point [°C] | Structure (SMILES) | loss of bone mineral density [1] |
| --- | --- | --- |
| 193 to 194 | COc1ccc(-c2cc3ccc(OC)cc3s2)cc1 [Example 1, 2-(4-Methoxyphenyl)-6-Methoxybenzo[b]thiophene] |  |
|  | C#C[C@]1(O)CC[C@H]2[C@@H]3CCc4cc(O)ccc4[C@H]3CC[C@@]21C [ethynyl estradiol, 17-α-ethynyl estradiol] | a reduction in the loss of bone mineral density |
